In PubChem BioAssay AID256 (DTP/NCI, 2004):
Values joined by “and” are separate entries in the source; they are usually repeats but may differ in a detail not shown here. Equal entries are not always repeated. Toxic doses and inconclusive results are not listed. The calls were made as follows: active = survival T/C of 150% or more; inactive = T/C below 125% in these data.

Test system: CD2F1 mice, L1210 leukemia ip, survival T/C
Assay: NCI In Vivo Anticancer Drug Screen. Data for tumor model L1210 Leukemia (intraperitoneal) in CD2F1 (CDF1) mice
Settings: higher = longer survival
Outline: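 In this screen, transplantable tumors were grown in mice given either the compound or its vehicle. Results were expressed as the treated measurement relative to the control measurement.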

[1] = endpoint: mean survival time, dose: 50.0 mg/kg/injection, schedule: Q01DX009 (ip), vehicle: saline with Tween-80
[2] = endpoint: mean survival time, dose: 100.0 mg/kg/injection, schedule: Q01DX009 (ip), vehicle: saline with Tween-80
[3] = endpoint: mean survival time, dose: 100.0 mg/kg/injection, schedule: Q04DX003 (ip), vehicle: saline with Tween-80
[4] = endpoint: mean survival time, dose: 200.0 mg/kg/injection, schedule: Q04DX003 (ip), vehicle: saline with Tween-80
[5] = endpoint: mean survival time, dose: 100.0 mg/kg/injection, schedule: Q04DX002 (ip), vehicle: saline with Tween-80
[6] = endpoint: mean survival time, dose: 200.0 mg/kg/injection, schedule: Q04DX002 (ip), vehicle: saline with Tween-80
[7] = endpoint: mean survival time, dose: 400.0 mg/kg/injection, schedule: Q04DX002 (ip), vehicle: saline with Tween-80
[8] = endpoint: mean survival time, dose: 100.0 mg/kg/injection, schedule: Q01DX001 (ip), vehicle: saline
[9] = endpoint: mean survival time, dose: 200.0 mg/kg/injection, schedule: Q01DX001 (ip), vehicle: saline
[10] = endpoint: mean survival time, dose: 400.0 mg/kg/injection, schedule: Q01DX001 (ip), vehicle: saline
[11] = endpoint: mean survival time, dose: 25.0 mg/kg/injection, schedule: Q04DX002 (ip), vehicle: saline with Tween-80
[12] = endpoint: mean survival time, dose: 50.0 mg/kg/injection, schedule: Q04DX002 (ip), vehicle: saline with Tween-80
[13] = endpoint: mean survival time, dose: 200.0 mg/kg/injection, schedule: Q01DX009 (ip), vehicle: saline with Tween-80
[14] = endpoint: mean survival time, dose: 400.0 mg/kg/injection, schedule: Q04DX003 (ip), vehicle: saline with Tween-80

Measured: T/C

C/C=C\c1ccc(OCCOC(=O)Nc2cc(Cl)c(OC)cc2OC)c(OC)c1
inactive: [1] 90 % of control | [2] 90 % of control

O=C(/C=C/C(=O)OCCCl)OCCCl
inactive: [3] 104 % of control | [4] 96 % of control

O=C(OCCOC(=O)N1CCOCC1)N1CCOCC1
inactive: [5] 101 % of control | [6] 97 % of control | [7] 101 % of control

COc1cccc2c1CCC13OC(O)CC21CCCC3C#N (configuration not stated)
inactive: [8] 95 % of control | [9] 95 % of control | [10] 90 % of control

COc1ccc2c(c1)C1(C)CCC(=O)C(C)=C1CC2 (configuration not stated)
inactive: [8] 105 % of control | [9] 98 % of control | [10] 98 % of control

Brc1ccc(OCC(COc2ccc(Br)cc2)(COc2ccc(Br)cc2)COc2ccc(Br)cc2)cc1
inactive: endpoint: mean survival time, dose: 100.0 mg/kg/injection, schedule: Q01DX001 (ip), vehicle: Klucel (hydroxypropylcellulose) (HPC) 100 % of control | endpoint: mean survival time, dose: 200.0 mg/kg/injection, schedule: Q01DX001 (ip), vehicle: Klucel (hydroxypropylcellulose) (HPC) 103 % of control | endpoint: mean survival time, dose: 400.0 mg/kg/injection, schedule: Q01DX001 (ip), vehicle: Klucel (hydroxypropylcellulose) (HPC) 91 % of control

CC(=O)OCC1OC(n2ncc3c2ncn2nnnc32)C(OC(C)=O)C1OC(C)=O (configuration not stated)
inactive: endpoint: mean survival time, dose: 18.75 mg/kg/injection, schedule: Q01DX005 (ip), vehicle: distilled water + alcohol 100 % of control | endpoint: mean survival time, dose: 37.5 mg/kg/injection, schedule: Q01DX005 (ip), vehicle: distilled water + alcohol 91 % of control | endpoint: mean survival time, dose: 75.0 mg/kg/injection, schedule: Q01DX005 (ip), vehicle: distilled water + alcohol 103 % of control | endpoint: mean survival time, dose: 150.0 mg/kg/injection, schedule: Q01DX005 (ip), vehicle: distilled water + alcohol 100 % of control | endpoint: mean survival time, dose: 300.0 mg/kg/injection, schedule: Q01DX005 (ip), vehicle: distilled water + alcohol 103 % of control

CC(C)c1ccc(P(c2ccc(C(C)C)cc2)c2ccc(C(C)C)cc2)cc1
inactive: [11] 103 % of control | [12] 88 % of control | [5] 88 % of control

CC1C(=O)OC2C1CCC1(C)C(O)OC(=O)C(C)C21 (configuration not stated)
inactive: [5] 104 % of control and 96 % of control | [6] 100 % of control and 108 % of control | [7] 100 % of control and 104 % of control

CP1(=S)CCC(O)(c2ccccc2)CC1 (configuration not stated)
inactive: endpoint: mean survival time, dose: 25.0 mg/kg/injection, schedule: Q01DX009 (ip), vehicle: saline with Tween-80 101 % of control | [11] 91 % of control | [1] 89 % of control | [12] 91 % of control | [2] 97 % of control | [5] 95 % of control

c1ccc2c(c1)[nH]c1c2cc[n+]2cc3c(cc12)CCCC3
inactive: endpoint: mean survival time, dose: 5.0 mg/kg/injection, schedule: Q01DX001 (ip), vehicle: saline 100 % of control | endpoint: mean survival time, dose: 10.0 mg/kg/injection, schedule: Q01DX001 (ip), vehicle: saline 101 % of control | endpoint: mean survival time, dose: 20.0 mg/kg/injection, schedule: Q01DX001 (ip), vehicle: saline 106 % of control | endpoint: mean survival time, dose: 40.0 mg/kg/injection, schedule: Q01DX001 (ip), vehicle: saline 109 % of control

CCc1ccc2ccccc2c1N
inactive: [1] 108 % of control | [2] 110 % of control | endpoint: mean survival time, dose: 200.0 mg/kg/injection, schedule: Q01DX001 (ip), vehicle: saline with Tween-80 94 % of control | [13] 118 % of control

BrCCC1(CCBr)CCCCC1
inactive: endpoint: median survival time, dose: 50.0 mg/kg/injection, schedule: Q01DX009 (ip), vehicle: other 104 % of control | endpoint: median survival time, dose: 200.0 mg/kg/injection, schedule: Q01DX009 (ip), vehicle: other 101 % of control | endpoint: median survival time, dose: 400.0 mg/kg/injection, schedule: Q01DX009 (ip), vehicle: other 101 % of control | endpoint: median survival time, dose: 800.0 mg/kg/injection, schedule: Q01DX009 (ip), vehicle: other 101 % of control

C#CCSc1c(Cl)c(Cl)c(Cl)c(Cl)c1Cl
inactive: [5] 87 % of control | [6] 95 % of control | [7] 87 % of control

O=C1CC(=O)NC(=O)C1
inactive: endpoint: mean survival time, dose: 12.5 mg/kg/injection, schedule: Q01DX009 (ip), vehicle: water 95 % of control | endpoint: mean survival time, dose: 25.0 mg/kg/injection, schedule: Q01DX009 (ip), vehicle: water 92 % of control | endpoint: mean survival time, dose: 50.0 mg/kg/injection, schedule: Q01DX009 (ip), vehicle: water 94 % of control | endpoint: mean survival time, dose: 100.0 mg/kg/injection, schedule: Q01DX009 (ip), vehicle: water 92 % of control | endpoint: mean survival time, dose: 200.0 mg/kg/injection, schedule: Q01DX009 (ip), vehicle: water 94 % of control

O=C1c2ccccc2-c2ccc(-c3ccc4c5c(cccc35)C(=O)c3ccccc3-4)c3cccc1c23
inactive: [3] 97 % of control | [4] 97 % of control | [14] 86 % of control

O=C(C1CC=C2c3ccccc3CCC2C1C(=O)N1CCCCC1)N1CCCCC1 (configuration not stated)
inactive: endpoint: mean survival time, dose: 75.0 mg/kg/injection, schedule: Q01DX001 (ip), vehicle: saline 104 % of control | endpoint: mean survival time, dose: 150.0 mg/kg/injection, schedule: Q01DX001 (ip), vehicle: saline 98 % of control | endpoint: mean survival time, dose: 300.0 mg/kg/injection, schedule: Q01DX001 (ip), vehicle: saline 107 % of control

C=CCCCCCCCCC(=O)NCc1cccnc1
inactive: [3] 98 % of control | [4] 104 % of control | [14] 90 % of control

O=P(O)(O)OCC(O)CCl (configuration not stated)
inactive: endpoint: mean survival time, dose: 100.0 mg/kg/injection, schedule: Q01DX009 (ip), vehicle: saline 96 % of control | endpoint: mean survival time, dose: 100.0 mg/kg/injection, schedule: Q04DX003 (ip), vehicle: saline 100 % of control | endpoint: mean survival time, dose: 200.0 mg/kg/injection, schedule: Q01DX009 (ip), vehicle: saline 92 % of control | endpoint: mean survival time, dose: 200.0 mg/kg/injection, schedule: Q04DX003 (ip), vehicle: saline 91 % of control | endpoint: mean survival time, dose: 400.0 mg/kg/injection, schedule: Q04DX003 (ip), vehicle: saline 103 % of control

O=C1OC(=O)C2CC(Br)C(Br)CC12 (configuration not stated)
inactive: [2] 95 % of control | [13] 98 % of control | endpoint: mean survival time, dose: 400.0 mg/kg/injection, schedule: Q01DX009 (ip), vehicle: saline with Tween-80 91 % of control

ClC1C(Cl)C(Cl)C(Cl)C(Cl)C1Cl (configuration not stated)
inactive: endpoint: mean survival time, dose: 10.0 mg/kg/injection, schedule: Q01DX009 (ip), vehicle: saline with Tween-80 104 % of control | endpoint: mean survival time, dose: 20.0 mg/kg/injection, schedule: Q01DX009 (ip), vehicle: saline with Tween-80 105 % of control | endpoint: mean survival time, dose: 40.0 mg/kg/injection, schedule: Q01DX009 (ip), vehicle: saline with Tween-80 100 % of control | endpoint: mean survival time, dose: 100.0 mg/kg/injection, schedule: Q01DX009 (ip), vehicle: other 102 % of control | endpoint: mean survival time, dose: 100.0 mg/kg/injection, schedule: Q04DX003 (ip), vehicle: Klucel (hydroxypropylcellulose) (HPC) 102 % of control | endpoint: mean survival time, dose: 200.0 mg/kg/injection, schedule: Q01DX009 (ip), vehicle: other 96 % of control | endpoint: mean survival time, dose: 200.0 mg/kg/injection, schedule: Q04DX003 (ip), vehicle: Klucel (hydroxypropylcellulose) (HPC) 107 % of control | endpoint: mean survival time, dose: 400.0 mg/kg/injection, schedule: Q04DX003 (ip), vehicle: Klucel (hydroxypropylcellulose) (HPC) 102 % of control

Cc1cc(OC(=O)N2CCCCC2)c(C(C)C)cc1[N+](C)(C)C
inactive: endpoint: mean survival time, dose: 0.06 mg/kg/injection, schedule: Q01DX009 (ip), vehicle: saline 95 % of control | endpoint: mean survival time, dose: 0.07 mg/kg/injection, schedule: Q04DX003 (ip), vehicle: saline sonified 97 % of control | endpoint: mean survival time, dose: 0.13 mg/kg/injection, schedule: Q04DX003 (ip), vehicle: saline sonified 106 % of control | endpoint: mean survival time, dose: 0.25 mg/kg/injection, schedule: Q04DX003 (ip), vehicle: saline sonified 100 % of control
